# Results: ChEMBL document CHEMBL3301361, “Experimental in vitro DMPK and physicochemical data on a set of publicly disclosed compounds”
# Assay: physchem
# Settings: octan-1-ol/water, pH 7.4
row,SMILES,logD
1,Cc1cc(O)nc(-n2nc(C)c(Oc3ccccc3O)c2C)n1,1.4
2,NC(=O)C[S+]([O-])C(c1ccccc1)c1ccccc1 (configuration not stated) [MODAFINIL],1.12
3,CC(C)(C)OC(=O)c1ncn2c1[C@@H]1CCCN1C(=O)c1c(Br)cccc1-2 [BRETAZENIL],2.48
4,CN(C(=O)Cc1ccc(Cl)c(Cl)c1)C(CN1CCCC1)c1ccccc1 (configuration not stated),3.38
5,Cc1ccc(OC(=O)N2CCN3CCC2CC3)cc1,1.02
6,CCN(CC)CCN1C(=O)CN=C(c2ccccc2F)c2cc(Cl)ccc21 [FLURAZEPAM],2.38
7,N#Cc1cccc(-c2ccc(C3(CNC(=O)Nc4cc(Cl)cc(Cl)c4)CCN(CC4CC4)CC3)cc2)c1,3.37
8,Cc1ccc(-c2cc(C(=O)N3CCOCC3)c3cc(C)ccc3n2)cc1,3.6
9,Cn1c(=O)n(Cc2ccc(Br)cc2)c2ccccc21,2.81
10,CCN(CC)C(=O)c1ccc([C@H](c2cccc(NC(=O)C3CC3)c2)N2CCN(Cc3ccc(F)cc3)CC2)cc1,3.99
11,O=c1c2ccccc2nc2n1CCS2(=O)=O,0.8
12,C[C@@H]1NC(C)(C)CO[C@@]1(O)c1cccc(Cl)c1 [RADAFAXINE],1.69
13,CNC(=O)c1ccc(Oc2ccc(C#C[C@]3(O)CN4CCC3CC4)cc2)cc1,1.99
14,O=C(O)c1cc2ccccc2n1Cc1ccccc1,0.78
15,CC(=O)N(C)c1ccccc1,1.1
16,CC1(C)CCC(NC(=O)[C@@H](N)CCC(=O)O)CC1 [NEBOGLAMINE],-0.27
17,O=C(NCc1ccncn1)c1ccc(Oc2ccc(C#C[C@]3(O)CN4CCC3CC4)cc2)cc1,1.78
18,c1ccc(C2CCNCC2)cc1,0.54

# Same assay, conditions: octan-1-ol/water, pH 7.4, LogD7.4
row,SMILES,logD
1,Nc1ccc(Cl)c(C(=O)NCC23CC4CC(CC(C4)C2)C3)c1,3.45
2,COc1cc2c(Nc3ccc(F)c(Cl)c3)c(C(N)=O)cnc2cc1OCCCN1CCN(C)CC1,1.2
3,CCCCc1ncc(/C=C(\Cc2cccs2)C(=O)O)n1Cc1ccc(C(=O)O)cc1 [EPROSARTAN],-0.9
4,O=C(NCC12CC3CC(CC(C3)C1)C2)c1ccccc1,4.21
5,COc1ccccc1OCC(O)CO (configuration not stated) [GUAIFENESIN],0.24
6,COc1cc2ncnc(Nc3cc(NC(=O)c4cccc(N(C)C)c4)ccc3Cl)c2cc1OC,4.26
7,O=c1oc2ccc(O)cc2cc1-c1ccc(O)cc1,2.9
8,NS(=O)(=O)c1cc2c(cc1Cl)NC(C1CC3C=CC1C3)NS2(=O)=O (configuration not stated) [CYCLOTHIAZIDE],2.12
9,CC(C)CC(c1ccccn1)n1[nH]c(=O)c2nc3cc(Cl)ccc3c(O)c2c1=O (configuration not stated),1.83
10,Cn1c(N)nc(CCc2ccccc2)cc1=O,2
11,Nc1ncc(NC(=O)c2cc(NC(=O)c3cccc(C(F)(F)F)c3)ccc2Cl)cc1Cl,3.26
12,COc1ccc(NC(=O)c2ccc(-c3ccncc3)c(C)c2)cc1N1CCN(C)CC1,2.56
13,Cc1ccc2c(c1)c(-c1ccnc3cc(C(F)(F)F)ccc13)c(C)n2CC(=O)O,1.78
14,CCC(c1nc2sccc2c(=O)n1Cc1ccccc1)N(CCCN)C(=O)c1ccc(C)cc1 (configuration not stated),2.06
15,CCC1(c2ccccc2)NC(=O)N(C)C1=O (configuration not stated) [MEPHENYTOIN],1.59
16,CC(C)(C)OC(=O)N1CCN(c2ncc(OCc3ccc(S(C)(=O)=O)cc3)cn2)CC1,3.27
17,CN(c1ncccc1CNc1nc(Nc2ccc3c(c2)CC(=O)N3)ncc1C(F)(F)F)S(C)(=O)=O [PF-00562271],2.63
18,CCOc1ccccc1-c1ccc(-c2nc3ccc(F)cc3c(N[C@H](C)C(=O)O)c2C#N)cc1,2.5
19,CNC[C@H](O)c1ccc(Cl)c(C(=O)NCC23CC4CC(CC(C4)C2)C3)c1,1.41
20,Nc1ncc(-c2ccc(S(=O)(=O)N3CCOCC3)cc2)nc1C(=O)Nc1cccnc1,2.83
21,O=C1CCOc2nc(COc3ccccc3)ccc21,2.3
22,CC#CCn1c(=O)c2c(-c3cncn3C)n(Cc3ccnc4ccc(Cl)cc34)nc2n(CC2CC2)c1=O,3.61
23,Cc1cccc(Cn2ccn3c(=O)cc(N4CCOCC4)nc23)c1,2.8

row,SMILES,logD
1,CN1CC(=O)N2[C@H](c3ccc4c(c3)OCO4)c3[nH]c4ccccc4c3C[C@@H]2C1=O,2.6
2,CCN(CC)CCOc1ccc(/C(=C(/Cl)c2ccccc2)c2ccccc2)cc1 [ENCLOMIPHENE],4.09
3,O=C(c1cc(Cc2n[nH]c(=O)c3ccccc23)ccc1F)N1CCN(C(=O)C2CCCO2)CC1 (configuration not stated),0.9
4,CCCCCSc1nc2nc(N)sc2c(=O)[nH]1,2.86
5,COc1cc(Nc2nccc(Oc3cnc4ccccc4c3)n2)cc(OC)c1OC,3.41
6,Oc1c(I)cc(I)c2cccnc12 [IODOQUINOL],2.19
7,COc1cc2ncc(C(N)=O)c(Nc3ccc(F)cc3F)c2cc1OC,2.95
8,CN(C)c1ncnc2nc[nH]c12 [DIMETHYLADENINE],0.95
9,N#Cc1cccc(-c2cccc(-c3nn[nH]n3)c2)c1,0.7
10,O=c1[nH]n(C(c2ccccc2)c2ccncc2)c(=O)c2c(O)c3ccc(Cl)cc3nc12 (configuration not stated),1.1
11,O=C1CCOc2nc(OCc3ccccc3)ccc21,3.1
12,Cc1cn([C@H]2CCCN(S(=O)(=O)c3ccc(O)c(Oc4cccc(C(F)(F)F)c4)c3)C2)c(=O)[nH]c1=O,2.27
13,CN(C/C=C/C#CC(C)(C)C)Cc1cccc2ccccc12 [TERBINAFINE],2.83
14,NC(=O)Nc1cc(-c2cccc(O)c2)sc1C(N)=O,2.21
15,CCN(C(=O)Cc1ccc(S(=O)(=O)N(C)C)cc1)C1CCN(CCC(c2ccccc2)c2ccccc2)CC1,3.7
16,C[C@@H](NC(=O)[C@H]1CCCNC1)c1ccc(Nc2ncc3cc(-c4ccncc4)ccc3n2)cc1,1.69
17,Cc1cc(Nc2ccccc2)n(CCC#N)n1,2.3
18,Clc1cccc(-n2nnnc2NCc2ccccc2Oc2ccccn2)c1Cl,3.62
19,COc1cc(N2CCN(C(C)=O)CC2)ccc1Nc1ncc(Cl)c(-c2cnc3cc(F)ccn23)n1,3.7
20,O=c1c2ccccc2nc2n1CCO2,0.6
21,COc1cc2ncc(C(N)=O)c(Nc3cccc(Cl)c3F)c2cc1OC,3.6
22,CN1CCCC(CN2CCN(C(=O)Nc3ccc(Cl)c(Cl)c3)CC2)C1 (configuration not stated),1.98
23,NC(=O)C(NC(=O)C1(N)CCN(c2ncnc3[nH]ccc23)CC1)c1ccc(Cl)cc1 (configuration not stated),2.2

row,SMILES,logD
1,Clc1ccc2c(c1Nc1ncnc3cc(OCCN4CCCC4)cc(OC4CCOCC4)c13)OCO2,2.6
2,Nc1n[nH]c(Nc2ccccc2)n1,1.06
3,CC1(O)CN(S(=O)(=O)c2ccc3c(C(=O)NC[C@@H](O)CN4CCC(Oc5ccc(Cl)c(Cl)c5)CC4)c[nH]c(=O)c3c2)C1,2.54
4,COc1cc(F)ccc1-c1cncc(CNC(=O)C2CC2)c1,2.9
5,COCCC(=O)N[C@H](C)c1ccc(Nc2ncc3cc(-c4ccncc4)ccc3n2)cc1,3.08
6,CN(CCOc1ccc(C[C@H](Nc2ccccc2C(=O)c2ccccc2)C(=O)O)cc1)c1nc2ccccc2o1,2.47
7,COc1cc(F)ccc1-c1cncc(CNC(=O)C2CCC2)c1,3.2
8,O=C(NCc1ccco1)c1ccc2[nH]c(COc3ccc(C45CC6CC(CC(C6)C4)C5)cc3)nc2c1,4
9,Cc1ccc(NC(=O)c2ccnc(N3CCOCC3)c2)cc1Nc1ccnc(OC2CCN(C)CC2)n1,1.8
10,Cc1ccc(-c2[nH]cnc2C)cc1NC(=O)c1ccc(OCc2ccccn2)cc1,2.87
11,COc1ccccc1C(=O)Nc1nc2ccccc2[nH]1,2.9
12,Cc1ccc(S(=O)(=O)NC(=O)N2CCC(N3CCC(Oc4ccc(Cl)cc4)CC3)CC2)cc1,1.6
13,O=c1oc2c(O)cccc2cc1-c1ccc(O)cc1,2.8
14,Nc1ccc(S(=O)(=O)N2CCCC2)cc1,0.98
15,CCC(CC)NC(=O)c1cnn(Cc2ccccc2)c1NS(=O)(=O)c1ccc(C)cc1,1.52
16,CCN(CCO)CCCOc1cc2ncnc(Nc3cc(CC(=O)Nc4cccc(F)c4)[nH]n3)c2cc1OC,2.12
17,COc1cc(N2CCN(C(C)=O)CC2)ccc1Nc1ncc(Cl)c(-c2cnc3ccc(N(C)C)cn23)n1,4.1
18,COC(=O)N1CCOc2cc(COc3ccccc3)cnc21,2.5
19,COC(=O)CCCCCCC(=O)Nc1ccc2c(c1)-c1ccccc1C(=O)C2=O,2.6
20,CC(C)(CS(=O)(=O)N1CCN(c2ccc(F)cc2)CC1)N(O)C=O,1.07
21,CC(C)(c1cc(N2CCOCC2)nc(-c2cccc3[nH]ccc23)n1)S(C)(=O)=O,2.65
22,COc1ccc(-c2coc3cc(O)ccc3c2=O)cc1 [FORMONONETIN],3.05
23,NC(=O)c1cnc(N[C@H]2CCCNC2)c2cc(-c3ccc(F)c(Cl)c3)sc12,2.94

row,SMILES,logD
1,Nc1ccc2c(c1)C(=O)c1ccccc1-2,2.9
2,CC(C)CNCc1ccc(-c2ccccc2S(=O)(=O)N2CCCC2)cc1 [PF-04455242],1.9
3,O=C(O)c1ccc(-c2nnn(Cc3ccccc3F)n2)cc1,0.3
4,Cc1ccc(-c2c[nH]cn2)cc1NC(=O)c1ccc(OCc2ccccn2)cc1,2.81
5,N=C(N)NC(=O)c1nc(Cl)c(NCc2ccccn2)nc1N,-0.56
6,CN(C)C(=O)c1ccc(CN2CCc3cc4nc(N)sc4cc3CC2)cc1,1.72
7,O=c1[nH]c2c(O)ccc([C@@H](O)CNCCc3ccc(CNCCc4ccccc4)cc3)c2s1,1.11
8,N#Cc1cnn2c(N)cc(-c3cccs3)nc12,2.3
9,CC(C)C(NC(=O)Cn1c(-c2ccccc2)ccc(NC(=O)NCc2cc[n+]([O-])cc2)c1=O)C(=O)C(F)(F)F (configuration not stated),1.13
10,CCC(c1nc2ccsc2c(=O)n1Cc1ccc(Cl)cc1)N(CCCN)C(=O)c1ccc(C)cc1 (configuration not stated),2.32
11,CC(C)Cn1c(=O)n(C)c(=O)c2c(C(=O)N3CC[C@@H](O)C3)c(Cc3ccnc4ccccc34)sc21,1.65
12,O=C(NCc1ccccn1)c1ccc(Oc2ccccc2)cc1,2.7
13,Cc1nnc(N)s1,-0.4
14,NNC(=O)c1ccncc1 [ISONIAZID],-0.57
15,COc1ccc2c(c1)N(C[C@H](C)CN(C)C)c1ccccc1S2 [LEVOMEPROMAZINE],2.99
16,O=C(Nc1ccccn1)c1ccccc1,2.2
17,O=C(O)Cc1ccc(-c2ccc(NC(=O)c3nnc(Nc4ccccc4F)o3)cc2)cc1,1.5
18,CCCN(CCC)C(=O)c1cccc(C(=O)N[C@@H](Cc2ccccc2)[C@H](O)CNC2Cc3ccccc3C2)c1,3.3
19,Cn1cncc1-c1c2c(=O)n(C3CC3)c(=O)n(CC3CC3)c2nn1Cc1ccnc2ccc(Cl)cc12,3.53
20,CC[C@H](NC(=O)c1c([S+]([O-])CC)c(-c2ccccc2)nc2ccccc12)c1ccccc1 (some centres not stated),3.45
